Laboratory results: publication PMC5053523, “In Vitro Antibacterial Activity of Rhodanine Derivatives against Pathogenic Clinical Isolates” (PLoS ONE, 2016)
≈ marks a conversion by molar mass, not a printed value. Where two headings read alike, the source gives them in different places.

Key:
[1] = test system: methicillin-resistant Staphylococcus aureus (MRSA); experiment: Broth microdilution MIC/MBC, MRSA; type: cell-based
[2] = test system: Vancomycin Resistant Staphylococcus aureus (VRSA); experiment: Broth microdilution MIC/MBC, VRSA; type: cell-based; settings: for MBC / MIC: VRSA
Bacillus Strains = experiment: Broth microdilution MIC50/MIC90 and MIC range, Bacillus strains panel; type: cell-based, Bacillus spp.; settings: 10 Bacillus strains
Description: The broth microdilution technique was used, followed by subculturing on agar plates that were rhodanine—free. […] The MICs reported represent the lowest concentration of each compound necessary to inhibit bacterial growth and the MBCs represent the lowest concentration required to reduce the initial bacterial inoculum by ≥ 99.9%.

Clostridium difficile = experiment: MIC against Clostridium difficile, anaerobic broth dilution; type: cell-based; settings: Clostridioides difficile
Summary of the method: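 Clinical C. difficile isolates grown anaerobically 48 h at 37 °C, suspended to 0.5 McFarland and diluted 1:300 in pre-reduced supplemented Brain Heart Infusion broth. Compounds serially diluted; plates incubated anaerobically at 37 °C for 48 h. MIC = lowest concentration with no visible growth.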

Mycobacterium smegmatis = experiment: Broth microdilution MIC/MBC, Mycobacterium smegmatis; type: cell-based; settings: Mycolicibacterium smegmatis, ATCC14468, M. Smegmatis ATCC 14468
K. pneumoniae = experiment: Broth microdilution MIC, K. pneumoniae; type: cell-based
Candida albicans = experiment: MIC against Candida albicans; type: cell-based; settings: table prints none, read-out: MIC
Acinetobacter baumannii = experiment: MIC with/without sub-MIC colistin, Acinetobacter baumannii; type: cell-based
Summary of the method: (§1)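 Read-out is the MIC, determined with sub-inhibitory colistin or polymixin B nonapeptide co-applied to permeabilize the outer membrane of Gram-negative bacteria.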

Escherichia coli O157:H7 [3] = experiment: MIC with/without sub-MIC colistin, Escherichia coli O157:H7; type: cell-based
Summary of the method: as §1

Pseudomonas aeruginosa [4] = experiment: MIC with/without sub-MIC colistin, Pseudomonas aeruginosa; type: cell-based
Summary of the method: as §1

Escherichia coli O157:H7 [5] = experiment: MIC with/without PMBN, Escherichia coli O157:H7; type: cell-based
Summary of the method: as §1

Salmonella Typhimurium = experiment: MIC with/without PMBN, Salmonella Typhimurium; type: cell-based
Summary of the method: as §1

Pseudomonas aeruginosa [6] = experiment: MIC with/without PMBN, Pseudomonas aeruginosa; type: cell-based
Summary of the method: as §1

Escherichia coli Δ acrAB = experiment: MIC against E. coli 1411 and AcrAB efflux pump deficient E. coli SM1411Δ acrAB; type: cell-based
Summary of the method: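 Gram-negative MICs were determined for rhodanines alongside control antibiotics, each combined with sub-inhibitory colistin or PMBN. Further testing used the efflux-deficient E. coli SM1411ΔacrAB, missing the AcrAB multidrug pump.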

O=C(O)[C@H](Cc1ccccc1)N1C(=O)/C(=C/c2cccc(-c3ccccc3)c2)SC1=S [Rh 5]
MIC50 ([1]; 11 MRSA strains): 8 µM (≈ 3.56 µg/mL) | MIC90 ([1]; 11 MRSA strains): 16 µM (≈ 7.13 µg/mL) | MBC ([1]; MRSA NRS 1): 16 µM (≈ 7.13 µg/mL) | MIC ([1]; MRSA NRS 1): 8 µM (≈ 3.56 µg/mL) | MBC ([1]; MRSA NRS 19): 16 µM (≈ 7.13 µg/mL) | MIC ([1]; MRSA NRS 19): 8 µM (≈ 3.56 µg/mL) | MBC ([1]; MRSA NRS 37): 16 µM (≈ 7.13 µg/mL) | MIC ([1]; MRSA NRS 37): 16 µM (≈ 7.13 µg/mL) | MBC ([1]; MRSA NRS 107): 16 µM (≈ 7.13 µg/mL) | MIC ([1]; MRSA NRS 107): 16 µM (≈ 7.13 µg/mL) | MBC ([1]; MRSA NRS 119): 8 µM (≈ 3.56 µg/mL) | MIC ([1]; MRSA NRS 119): 8 µM (≈ 3.56 µg/mL) | MBC ([1]; MRSA NRS 382): 8 µM (≈ 3.56 µg/mL) | MIC ([1]; MRSA NRS 382): 8 µM (≈ 3.56 µg/mL) | MBC ([1]; MRSA NRS 383): 16 µM (≈ 7.13 µg/mL) | MIC ([1]; MRSA NRS 383): 16 µM (≈ 7.13 µg/mL) | MBC ([1]; MRSA NRS 384): 64 µM (≈ 28.5 µg/mL) | MIC ([1]; MRSA NRS 384): 8 µM (≈ 3.56 µg/mL) | MBC ([1]; MRSA NRS 385): 16 µM (≈ 7.13 µg/mL) | MIC ([1]; MRSA NRS 385): 8 µM (≈ 3.56 µg/mL) | MBC ([1]; MRSA NRS 386): 64 µM (≈ 28.5 µg/mL) | MIC ([1]; MRSA NRS 386): 8 µM (≈ 3.56 µg/mL) | MBC ([1]; MRSA NRS 387): 8 µM (≈ 3.56 µg/mL) | MIC ([1]; MRSA NRS 387): 8 µM (≈ 3.56 µg/mL) | MIC50 ([2]; 15 VRSA strains, read-out: MIC 50): 8 µM (≈ 3.56 µg/mL) | MIC90 ([2]; 15 VRSA strains, read-out: MIC 90): 8 µM (≈ 3.56 µg/mL) | MBC ([2]; VRSA 1, read-out: MBC): 16 µM (≈ 7.13 µg/mL) | MIC ([2]; VRSA 1, read-out: MIC): 8 µM (≈ 3.56 µg/mL) | MBC ([2]; VRSA 2, read-out: MBC): 8 µM (≈ 3.56 µg/mL) | MIC ([2]; VRSA 2, read-out: MIC): 8 µM (≈ 3.56 µg/mL) | MBC ([2]; VRSA 3a, read-out: MBC): 16 µM (≈ 7.13 µg/mL) | MIC ([2]; VRSA 3a, read-out: MIC): 8 µM (≈ 3.56 µg/mL) | MBC ([2]; VRSA 3b, read-out: MBC): 16 µM (≈ 7.13 µg/mL) | MIC ([2]; VRSA 3b, read-out: MIC): 8 µM (≈ 3.56 µg/mL) | MBC ([2]; VRSA 4, read-out: MBC): 16 µM (≈ 7.13 µg/mL) | MIC ([2]; VRSA 4, read-out: MIC): 8 µM (≈ 3.56 µg/mL) | MBC ([2]; VRSA 5, read-out: MBC): 16 µM (≈ 7.13 µg/mL) | MIC ([2]; VRSA 5, read-out: MIC): 8 µM (≈ 3.56 µg/mL) | MBC ([2]; VRSA 6, read-out: MBC): 16 µM (≈ 7.13 µg/mL) | MIC ([2]; VRSA 6, read-out: MIC): 8 µM (≈ 3.56 µg/mL) | MBC ([2]; VRSA 7, read-out: MBC): 32 µM (≈ 14.3 µg/mL) | MIC ([2]; VRSA 7, read-out: MIC): 8 µM (≈ 3.56 µg/mL) | MBC ([2]; VRSA 8, read-out: MBC): 16 µM (≈ 7.13 µg/mL) | MIC ([2]; VRSA 8, read-out: MIC): 8 µM (≈ 3.56 µg/mL) | MBC ([2]; VRSA 9, read-out: MBC): 16 µM (≈ 7.13 µg/mL) | MIC ([2]; VRSA 9, read-out: MIC): 16 µM (≈ 7.13 µg/mL) | MBC ([2]; VRSA 10, read-out: MBC): 16 µM (≈ 7.13 µg/mL) | MIC ([2]; VRSA 10, read-out: MIC): 8 µM (≈ 3.56 µg/mL) | MBC ([2]; VRSA 11a, read-out: MBC): 16 µM (≈ 7.13 µg/mL) | MIC ([2]; VRSA 11a, read-out: MIC): 8 µM (≈ 3.56 µg/mL) | MBC ([2]; VRSA 11b, read-out: MBC): 16 µM (≈ 7.13 µg/mL) | MIC ([2]; VRSA 11b, read-out: MIC): 8 µM (≈ 3.56 µg/mL) | MBC ([2]; VRSA 12, read-out: MBC): 16 µM (≈ 7.13 µg/mL) | MIC ([2]; VRSA 12, read-out: MIC): 8 µM (≈ 3.56 µg/mL) | MBC ([2]; VRSA 13, read-out: MBC): 16 µM (≈ 7.13 µg/mL) | MIC ([2]; VRSA 13, read-out: MIC): 8 µM (≈ 3.56 µg/mL) | MIC50 (Bacillus Strains): 4 µM (≈ 1.78 µg/mL) | MIC90 (Bacillus Strains): 8 µM (≈ 3.56 µg/mL) | MIC (Clostridium difficile; C. difficile HM-88): 4 µM (≈ 1.78 µg/mL) | MIC (Clostridium difficile; C. difficile HM-745): 4 µM (≈ 1.78 µg/mL) | MIC (Clostridium difficile; C. difficile HM-746): 2 µM (≈ 0.891 µg/mL) | MIC (Clostridium difficile; C. difficile Isolate-1 NR-13427): 4 µM (≈ 1.78 µg/mL) | MIC (Clostridium difficile; C. difficile Toxigenic Strain P8 NR-32888): 4 µM (≈ 1.78 µg/mL) | MBC (Mycobacterium smegmatis; read-out: MBC): 16 µM (≈ 7.13 µg/mL) | MIC (Mycobacterium smegmatis; read-out: MIC): 16 µM (≈ 7.13 µg/mL) | MIC (K. pneumoniae; K. pneumoniae NR-15417): >128 µM | MIC (K. pneumoniae; Klebsiella pneumoniae): > 128 µM | MIC (Candida albicans; ATCC10231, C. albicans ATCC 10231, unit from abstract): > 64 µM | MIC (Candida albicans; C. albicans NR 29434, unit from abstract): > 64 µM | MIC (Candida albicans; C. albicans NR 29435, unit from abstract): > 64 µM | MIC (Candida albicans; C. albicans NR29437, unit from abstract): > 64 µM | MIC (Candida albicans; C. albicans NR29438, unit from abstract): > 64 µM | MIC (Candida albicans; C. albicans NR 29446, unit from abstract): > 64 µM | MIC (Candida albicans; C. albicans NR 29448, unit from abstract): > 64 µM | MIC (Candida albicans; C. albicans NR 29449, unit from abstract): > 64 µM | MIC (Candida albicans; C. albicans NR 29453, unit from abstract): > 64 µM | MIC (Candida albicans; C. albicans NR 294436, unit from abstract): > 64 µM | MIC (Acinetobacter baumannii; Acinetobacter baumannii ATCC BAA747, colistin (+) […], read-out: MIC): >64 µM | MIC (Acinetobacter baumannii; Acinetobacter baumannii ATCC BAA19606, colistin (+) […], read-out: MIC): >64 µM | MIC (Acinetobacter baumannii; Acinetobacter baumannii, ATCCBAA747): > 128 µM | MIC (Acinetobacter baumannii; Acinetobacter baumannii, ATCCBAA19606): > 128 µM | MIC (Escherichia coli O157:H7 [3]; Escherichia coli O157:H7 ATCC 35150, colistin (+) […], read-out: MIC): >64 µM | MIC (Escherichia coli O157:H7 [3]; Escherichia coli O157:H7 ATCC 700728, colistin (+) […], read-out: MIC): >64 µM | MIC (Escherichia coli O157:H7 [3]; Escherichia coli, ATCC35150): > 128 µM | MIC (Escherichia coli O157:H7 [3]; Escherichia coli, ATCC700728): > 128 µM | MIC (Pseudomonas aeruginosa [4]; Pseudomonas aeruginosa ATCC 921, colistin (+) […], read-out: MIC): >64 µM | MIC (Pseudomonas aeruginosa [4]; Pseudomonas aeruginosa, ATCC921): > 128 µM | MIC (Escherichia coli O157:H7 [5]; Escherichia coli O157:H7 ATCC 35150, PMBN (+) 4 μg/mL, read-out: MIC): 8 µM (≈ 3.56 µg/mL) | MIC (Escherichia coli O157:H7 [5]; Escherichia coli O157:H7 ATCC 700728, PMBN (+) 4 μg/mL, read-out: MIC): >64 µM | MIC (Escherichia coli O157:H7 [5]; Escherichia coli, ATCC35150): > 256 µM | MIC (Escherichia coli O157:H7 [5]; Escherichia coli, ATCC700728): > 128 µM | MIC (Salmonella Typhimurium; Salmonella Typhimurium ATCC 700720, PMBN (+) 4 μg/mL, read-out: MIC): >128 µM | MIC (Salmonella Typhimurium; Salmonella enterica, ATCC 700720 / TYPHIMURIUM): > 128 µM | MIC (Pseudomonas aeruginosa [6]; Pseudomonas aeruginosa ATCC 9721, PMBN (+) 4 μg/mL, read-out: MIC): >64 µM | MIC (Pseudomonas aeruginosa [6]; Pseudomonas aeruginosa, ATCC9721): > 128 µM | MIC (Escherichia coli Δ acrAB; E.coli 1411): > 64 µM | MIC (Escherichia coli Δ acrAB; E.coli 1411 SM (Δ acrAB, AcrAB efflux pump deficient)): > 64 µM
